Tests used:
PPARγ = molecular target: T1, PPARγ (Homo sapiens, UniProt P37231); test: commercial PPARγ binding assay (Invitrogen; PPAR-LBD/Fluormone PPAR Green complex); details: for Binding to PPARγ (Fluormone displacement signal): mean of three experiments
T1 construct: purchased Invitrogen Corporation, Carlsbad, Calif
T1 sequence (P37231 238-503 limits assumed): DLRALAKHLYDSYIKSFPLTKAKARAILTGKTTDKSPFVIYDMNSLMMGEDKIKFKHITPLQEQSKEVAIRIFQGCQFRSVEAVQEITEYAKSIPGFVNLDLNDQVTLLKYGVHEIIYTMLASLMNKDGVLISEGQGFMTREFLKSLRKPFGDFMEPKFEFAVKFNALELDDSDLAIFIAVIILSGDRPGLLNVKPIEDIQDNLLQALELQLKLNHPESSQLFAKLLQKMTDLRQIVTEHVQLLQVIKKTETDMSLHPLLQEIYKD
Protocol: The ability of several exemplary compounds of the present invention, shown in Table A, to bind to PPARγ was measured using a commercial binding assay (Invitrogen Corporation, Carlsbad, Calif.) that measures the test compounds ability to bind with PPAR-LBD/Fluormone PPAR Green complex. These assays were performed on three occasions with each assay using four separate wells (quadruplicate) at each concentration of tested compound. The data are mean and SEM of the values obtained from the three experiments. […] Compounds were added at the concentrations shown, which range from 0.1-100 micromolar.

[1] = system: Male Dahl salt-sensitive rats; test: Antihypertensive action in hypertensive Dahl salt-sensitive rats (high salt diet), mean blood pressure by direct femoral arterial cannulation; format: in vivo, rat; details: oral gavage daily, Compound 1 40 mg/kg/day, HCTZ 5 mg/kg/day
Protocol: Male Dahl salt-sensitive rats were made hypertensive by feeding of a high salt diet (4% salt) for 3 weeks and then treated daily with the indicated dose of hydrochlorothiazide (HCTZ), compound 1, or the combination of HCTZ and compound 1, as compared to the vehicle alone (1% carboxymethylcellulose/0.01% Tween 20) by oral gavage for 8 days. Mean blood pressure was measured by direct femoral arterial cannulation under fed conditions on day 7 and after a 6 hour fast on day 8.
Referring to FIG. 2 and Table C above, the antihypertensive action of compound 1 is additive with hydrocholothiazide (HCTZ). Data are mean and (SEM) mean blood pressure taken by direct cannulation. N=5; * p<0.05 less than blood pressure in HCTZ-treated rats.

SMILES	Binding to PPARγ (Fluormone displacement signal) (PPARγ; 1 μM compound)	Binding to PPARγ (Fluormone displacement signal) (PPARγ; 3 μM compound)	Binding to PPARγ (Fluormone displacement signal) (PPARγ; 10 μM compound)	Binding to PPARγ (Fluormone displacement signal) (PPARγ; 50 μM compound)	Binding to PPARγ (Fluormone displacement signal) (PPARγ; 100 μM compound)	Binding to PPARγ (Fluormone displacement signal) (PPARγ; .1 μM compound)	Binding to PPARγ (Fluormone displacement signal) (PPARγ; .3 μM compound)	binding to PPARγ (in words) (PPARγ; FIG. 1 and Table B)	Mean blood pressure, Fasted ([1]; 6 hour fast, day 8)	Mean blood pressure, Fed ([1]; fed, day 7)
CCc1ccc(CCOc2ccc(CC3(C)SC(=O)NC3=O)cc2)nc1 (single isomer, unassigned) [Compound 4]	234	224	200	122	91	236	230			
CCc1ccc(CCOc2ccc(CC3(C)SC(=O)NC3=O)cc2)nc1 (single isomer, unassigned) [Compound 6]	233	223	198	126	99	246	246			
CCc1ccc(CCOc2ccc(CC3(C)SC(=O)NC3=O)cc2)nc1 (single isomer, unassigned) [Compound 7]	248	237	210	144	105	249	246			
CCc1ccc([C@@H](O)COc2ccc(CC3SC(=O)NC3=O)cc2)nc1 (stereo partly drawn) [Compound 2]	238	236	223	162	136	231	233	particularly poor binders		
CCc1ccc([C@H](O)COc2ccc(CC3SC(=O)NC3=O)cc2)nc1 (stereo partly drawn) [Compound 3]	203	185	134	88	77	226	221			
CCc1ccc(C(O)COc2ccc(CC3(C)SC(=O)NC3=O)cc2)nc1 (stereo not drawn) [Compound 5]	228	226	212	132	106	235	230			
CCc1ccc([C@@H](O)COc2ccc(CC3(C)SC(=O)NC3=O)cc2)nc1 (stereo partly drawn) [Compound 8]	239	241	233	199	186	237	243			
CCc1ccc([C@H](O)COc2ccc(CC3(C)SC(=O)NC3=O)cc2)nc1 (stereo partly drawn) [Compound 9]	239	233	234	189	164	237	237			
CCc1ccc(C(=O)COc2ccc(CC3(C)SC(=O)NC3=O)cc2)nc1 (stereo not drawn) [Compound 10]	240	234	219	126	93	245	239			
CCc1ccc(C(=CC(=O)OC)COc2ccc(CC3SC(=O)NC3=O)cc2)nc1 (stereo not drawn) [Compound 11]	232	229	165	128	78	230	227			
CCc1ccc(C(COc2ccc(CC3SC(=O)NC3=O)cc2)CC(=O)OC)nc1 (stereo not drawn) [Compound 12]	198	155	112	80	85	243	222			
CCc1ccc(C(=CCO)COc2ccc(CC3SC(=O)NC3=O)cc2)nc1 (stereo not drawn) [Compound 13]	229	230	204	148	108	244	243			
NS(=O)(=O)c1cc2c(cc1Cl)NCNS2(=O)=O [HCTZ, hydrochlorothiazide, reference compound]									155	170

From patent US8629159B2, “Thiazolidinedione analogues” (Metabolic Solutions Development Company, LLC, priority 2006, dated 2014)
